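Step 1: Grow cells in 96-well plates. Step 2: Expose to compound for 48 hours at 5 concentrations. Step 3: Interpolate endpoints linearly; if unreached, use highest concentration. GI50 marks 50% less growth.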 Calls of active or inactive are those of the source. No stated cut-off is given here; in the data, active = GI50 up to about 1.1 µM and inactive = higher.

Among the test systems are HCT-116; DMS-273; NCI-H522; UACC-257; SF-268; K562; UO-31; TK-10; HCT-15; HOP-62; SNB-75; SF-295; MOLT-4; RXF 393; LOX IMVI; OVCAR-5; NCI-H226; HOP-92; MDA-MB-435; DU-145.
Holding throughout (experiment): NCI anticancer screen, dose series, 48 h

With `Cn1cc2ccccc2c1-c1nc(F)nc(OCC(=O)[C@H]2CCC3[C@@H]4CCC5=CC(=O)CC[C@]5(C)C4[C@@H](O)C[C@@]32C)n1` (some centres not stated), the GI50 in the assay with HCT-116 was 11.1 µM (inactive); in the assay with DMS-273 it was 15.6 µM (inactive); with NCI-H522, 15.2 µM (inactive); in the assay with UACC-257, 18.8 µM (inactive); with SF-268 it was 13.1 µM (inactive); with K562, 2.91 µM (inactive). Moreover, the GI50 in the assay with UO-31 was 19.6 µM (inactive); in the assay on TK-10, 23.1 µM (inactive); in the assay on HCT-15 it was 7.18 µM; in the assay on HOP-62, 22 µM (inactive); with SNB-75, 19 µM (inactive); in the assay on SF-295, 23.8 µM (inactive). Besides, the GI50 in the assay with MOLT-4 was 4.83 µM (inactive); in the assay on RXF 393, 3.92 µM (inactive); in the assay on LOX IMVI it was 4.66 µM (inactive); with OVCAR-5, 37.8 µM (inactive); with NCI-H226, 19.2 µM (inactive); in the assay with HOP-92 it was 19.8 µM (inactive).
`CN(C)CCS/C(=N\c1ccccc1)N1C=COC=C1`: the GI50 in the assay on HCT-116 is 23.6 µM (inactive); in the assay with MDA-MB-435, 18.9 µM (inactive); with DMS-273, 18.4 µM (inactive); with NCI-H522 it was 17.4 µM (inactive); with UACC-257 it was 18.2 µM (inactive); in the assay on SF-268, 15.8 µM (inactive). In addition, the GI50 in the assay on K562 is > 67.8 µM (inactive); with UO-31 it was 57.3 µM (inactive); in the assay with TK-10, 47.5 µM (inactive); with HCT-15 it was 20.5 µM; in the assay with DU-145, 75.9 µM (inactive); in the assay with HOP-62 it was > 100 µM (inactive). The GI50 with SNB-75 is > 78.7 µM (inactive); in the assay with SF-295, 99.8 µM (inactive); in the assay on MOLT-4, > 84.7 µM (inactive); in the assay on RXF 393, 26.7 µM (inactive); with LOX IMVI, 16 µM (inactive); in the assay on OVCAR-5, > 66.5 µM (inactive). Further, the figures for the GI50 in the assay with NCI-H226 and with HOP-92 were > 46.2 µM (inactive) and 26.2 µM (inactive), respectively.
For `Cc1ccc(C)c(NC(=O)CCc2n[nH]c(=S)o2)c1`, the GI50 in the assay with HCT-116, in the assay with DMS-273, in the assay with NCI-H522, with UACC-257, in the assay with SF-268 and in the assay with K562 was > 100 µM (inactive) in each case. Also, the GI50 in the assay with UO-31 is > 100 µM (inactive); with TK-10 it was > 100 µM (inactive); in the assay with HCT-15, greater than 100 µM; with HOP-62, > 100 µM (inactive); with SNB-75 it was > 100 µM (inactive); with SF-295 it was > 100 µM (inactive). Moreover, the GI50 in the assay on MOLT-4, in the assay on RXF 393, in the assay on LOX IMVI, in the assay on OVCAR-5, in the assay on NCI-H226 and in the assay on HOP-92 was > 100 µM (inactive) throughout.
`COc1cc2c(c(OC)c1)C(=O)C(=O)C(CC1(C)OCCCO1)=C2`: the GI50 with HCT-116 is 4.38 µM (inactive); with DMS-273, 13.6 µM (inactive); with NCI-H522, 1.4 µM (inactive); in the assay with UACC-257, 14.1 µM (inactive); with SF-268, 14.7 µM (inactive); in the assay on K562, 2.29 µM (inactive). Moreover, the GI50 was 12.7 µM (inactive) with UO-31; 6.14 µM (inactive) in the assay with TK-10; 6.25 µM with HCT-15; 17.5 µM (inactive) with HOP-62; 19.5 µM (inactive) with SNB-75; 13.9 µM (inactive) in the assay on SF-295. Moreover, the GI50 in the assay with MOLT-4 was 3.27 µM (inactive); in the assay on RXF 393 it was 4.38 µM (inactive); with LOX IMVI it was 5.01 µM (inactive); with OVCAR-5, 22.9 µM (inactive); with NCI-H226 it was 6.17 µM (inactive); with HOP-92 it was 1.89 µM (inactive).
On to `Nc1nc(Cl)cc(NCCCCCNc2cc(Cl)nc(N)n2)n1`, for which the GI50 is 30.3 µM (inactive) with HCT-116; > 100 µM (inactive) in the assay on DMS-273; 20 µM (inactive) with NCI-H522; 46.8 µM (inactive) in the assay with UACC-257; 29.1 µM (inactive) with SF-268; 34.6 µM (inactive) in the assay on K562. Further, the GI50 with UO-31 is > 100 µM (inactive); in the assay with TK-10, > 100 µM (inactive); with HCT-15 it was 73.6 µM; in the assay with HOP-62, > 100 µM (inactive); with SNB-75, 72.3 µM (inactive); with SF-295 it was 29.2 µM (inactive). Moreover, the GI50 in the assay on MOLT-4 is 7.48 µM (inactive); in the assay with RXF 393, 58.3 µM (inactive); in the assay with LOX IMVI it was 25.1 µM (inactive); in the assay with OVCAR-5, 37.4 µM (inactive); in the assay with NCI-H226, 41.4 µM (inactive); with HOP-92 it was 28.2 µM (inactive).

The values are drawn from ChEMBL document CHEMBL1201862, “PubChem BioAssay data set” (2004).
